{"source": "patent EP0251827A2", "about": "“New cyclic ether derivatives, their preparation and their use” (Sankyo Company Limited, priority 1986, dated 1988)", "tested_on": "PAF-induced hypotension", "assay": "Inhibition of PAF-induced hypotension", "assay_type": "in vivo, rats of the Wistar-Imamichi strain", "details": "Rattus norvegicus, iv; 50% inhibitory dose from dose-response curve for inhibition of PAF-induced hypotension; rats; read-out: Inhibition of Hypotension ID50", "procedure": "The test animals employed were rats of the Wistar-Imamichi strain, each weighing between 350 and 450 g.\nUnder Inactin anesthesia (90 mg/kg administered intraperitoneally) the left femoral artery and vein of each test animal were cannulated to enable the arterial blood pressure to be monitored continuously and for drug administration, respectively. At intervals of about 5 minutes, each animal was given by intravenous injection 10 ng/kg of synthetic I-C16:0 PAF until a steady hypotensive response was achieved. At this time, the drug to be tested was administered by intravenous injection in doses increasing cumulatively by a factor of 4. Within I minute of this injection, a further 10 ng/kg of the IC16:0 PAF was administered. The hypotensive response to PAF was inhibited by the test drug in a dose-related manner.\nThe PAF was administered in the form of a solution in physiological saline containing 0.25% w/v bovine serum albumin. The test drugs were dissolved in physiological saline containing 20% v/v ethanol.\nThe 50% inhibitory dose (ID 50 ) was calculated from the dose-response curve constructed for the inhibition of PAF-induced hypotension.\nThis test was carried out using compounds of the invention, as well as the prior art compound CV-3988, disclosed in US Patent No. 4,408,052 and represented by the foregoing formula (B).", "data": [{"smiles": "CCCCCCCCCCCCCCCCCCNC(=O)OCC(COP(=O)([O-])OCC[n+]1ccsc1)OC", "note": "(stereo not shown) [CV - 3988]", "values": [{"measurement": "ED50", "result": 0.42, "unit": "mg/kg"}]}]}
